# Measurements published in ChEMBL document CHEMBL5096151, “Phytocannabinoid Pharmacology: Medicinal Properties of Cannabis sativa Constituents Aside from the "Big Two"” (J Nat Prod, 2021).
# Assays:
# [1] = target: T1, Transient receptor potential cation channel subfamily V member 1 (Homo sapiens, UniProt Q8NER1); assay: Agonist activity at ionomycin-stimulated TRPV1 (unknown origin) activation assessed as efficacy relative to control
# [2] = target: T1, Transient receptor potential cation channel subfamily V member 1; assay: Agonist activity at ionomycin-stimulated TRPV1 (unknown origin) channel desensitization in presence of capsaicin
# [3] = target: T2, Transient receptor potential cation channel subfamily V member 2 (Homo sapiens, UniProt Q9Y5S1); assay: Agonist activity at ionomycin-stimulated TRPV2 (unknown origin) activation
# T2 sequence (Q9Y5S1 whole entry): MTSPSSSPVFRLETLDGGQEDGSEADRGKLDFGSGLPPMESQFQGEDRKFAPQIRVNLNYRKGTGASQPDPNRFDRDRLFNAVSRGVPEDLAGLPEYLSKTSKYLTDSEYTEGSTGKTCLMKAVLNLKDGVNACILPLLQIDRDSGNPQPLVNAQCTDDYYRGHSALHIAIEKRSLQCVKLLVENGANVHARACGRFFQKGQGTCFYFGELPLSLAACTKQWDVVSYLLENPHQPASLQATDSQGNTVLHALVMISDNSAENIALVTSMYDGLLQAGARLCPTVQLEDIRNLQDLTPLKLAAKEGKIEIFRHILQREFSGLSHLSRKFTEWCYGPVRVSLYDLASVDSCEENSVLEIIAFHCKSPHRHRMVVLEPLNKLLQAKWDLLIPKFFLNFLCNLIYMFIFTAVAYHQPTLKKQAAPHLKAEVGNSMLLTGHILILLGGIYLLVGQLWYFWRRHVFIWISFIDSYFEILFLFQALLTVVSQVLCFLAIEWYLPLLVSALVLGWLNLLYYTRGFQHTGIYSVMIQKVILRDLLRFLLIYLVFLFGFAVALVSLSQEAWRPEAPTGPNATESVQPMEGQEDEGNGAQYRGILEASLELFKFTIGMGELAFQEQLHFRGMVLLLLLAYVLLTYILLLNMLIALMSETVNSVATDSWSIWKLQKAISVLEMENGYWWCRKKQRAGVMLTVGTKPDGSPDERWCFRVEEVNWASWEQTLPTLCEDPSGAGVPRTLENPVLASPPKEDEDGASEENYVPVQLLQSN
# [4] = target: T3, Transient receptor potential cation channel subfamily V member 2 (Homo sapiens) (UniProt Q9Y5S1); assay: Agonist activity at ionomycin-stimulated TRPV2 (unknown origin) activation assessed as efficacy relative to control; conditions: filed as agonist
# T3 sequence (whole entry): T2 sequence (Q9Y5S1 whole entry)
# [5] = target: T2, Transient receptor potential cation channel subfamily V member 2; assay: Agonist activity at ionomycin-stimulated TRPV2 (unknown origin) channel desensitization in presence of lysophosphatidylcholine
# [6] = target: T4, Transient receptor potential cation channel subfamily V member 3 (Homo sapiens, UniProt Q8NET8); assay: Agonist activity at ionomycin-stimulated TRPV3 (unknown origin) activation
# T4 sequence (Q8NET8 whole entry): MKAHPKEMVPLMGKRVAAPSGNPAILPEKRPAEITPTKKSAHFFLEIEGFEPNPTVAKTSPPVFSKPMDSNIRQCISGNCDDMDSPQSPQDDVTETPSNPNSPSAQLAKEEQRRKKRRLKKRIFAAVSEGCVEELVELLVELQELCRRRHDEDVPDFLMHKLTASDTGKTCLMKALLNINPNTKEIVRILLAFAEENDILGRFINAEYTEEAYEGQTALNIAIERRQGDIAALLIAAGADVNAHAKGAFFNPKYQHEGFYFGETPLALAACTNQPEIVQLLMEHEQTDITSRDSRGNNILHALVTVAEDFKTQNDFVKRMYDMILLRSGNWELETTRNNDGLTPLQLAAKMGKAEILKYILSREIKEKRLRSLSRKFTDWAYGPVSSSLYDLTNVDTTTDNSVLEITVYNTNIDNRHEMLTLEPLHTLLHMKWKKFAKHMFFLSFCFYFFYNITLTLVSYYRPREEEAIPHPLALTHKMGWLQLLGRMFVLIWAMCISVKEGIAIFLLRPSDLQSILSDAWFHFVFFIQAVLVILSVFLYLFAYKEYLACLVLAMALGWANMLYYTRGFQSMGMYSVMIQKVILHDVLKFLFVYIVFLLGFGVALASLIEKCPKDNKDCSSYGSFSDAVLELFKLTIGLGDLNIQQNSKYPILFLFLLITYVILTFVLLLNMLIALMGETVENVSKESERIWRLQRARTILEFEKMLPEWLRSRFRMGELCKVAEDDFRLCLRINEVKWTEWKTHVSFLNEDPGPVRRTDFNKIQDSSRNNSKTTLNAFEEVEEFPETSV
# [7] = target: T5, Transient receptor potential cation channel subfamily V member 3 (Homo sapiens) (UniProt Q8NET8); assay: Agonist activity at ionomycin-stimulated TRPV3 (unknown origin) activation assessed as efficacy relative to control; conditions: filed as agonist
# T5 sequence (whole entry): T4 sequence (Q8NET8 whole entry)
# [8] = target: T4, Transient receptor potential cation channel subfamily V member 3; assay: Agonist activity at ionomycin-stimulated TRPV3 (unknown origin) channel desensitization in presence of carvacrol
# [9] = target: T6, Transient receptor potential cation channel subfamily V member 4 (Homo sapiens, UniProt Q9HBA0); assay: Agonist activity at ionomycin-stimulated TRPV4 (unknown origin) activation
# [10] = target: T6, Transient receptor potential cation channel subfamily V member 4; assay: Agonist activity at ionomycin-stimulated TRPV4 (unknown origin) activation assessed as efficacy relative to control; conditions: filed as agonist
# [11] = target: T6, Transient receptor potential cation channel subfamily V member 4; assay: Agonist activity at ionomycin-stimulated TRPV4 (unknown origin) channel desensitization in presence of 4alphaPDD
# [12] = target: T7, Transient receptor potential cation channel subfamily A member 1 (Homo sapiens, UniProt O75762); assay: Agonist activity at TRPA1 (unknown origin) activation
# [13] = target: T7, Transient receptor potential cation channel subfamily A member 1; assay: Agonist activity at TRPA1 (unknown origin) activation assessed as efficacy relative to control; conditions: filed as agonist
# [14] = target: T7, Transient receptor potential cation channel subfamily A member 1; assay: Agonist activity at TRPA1 (unknown origin) channel desensitization in presence of isothiocyanate
# [15] = target: T7, Transient receptor potential cation channel subfamily A member 1; assay: Agonist activity at TRPA1 (unknown origin) channel desensitization in presence of icilin
# [16] = target: T8, Cannabinoid receptor 1 (Homo sapiens, UniProt P21554); assay: Binding affinity to CB1 (unknown origin) assessed as inhibition constant
# [17] = target: T8, Cannabinoid receptor 1; assay: Binding affinity to CB1 (unknown origin) expressed in CHO -k1 cells assessed as inhibition constant; type: cell-based
# [18] = target: T9, Cannabinoid receptor 2 (Homo sapiens, UniProt P34972); assay: Binding affinity to CB2 receptor (unknown origin) expressed in CHO -k1 cells assessed as inhibition constant; type: cell-based
# [19] = target: T9, Cannabinoid receptor 2; assay: Binding affinity to CB2 receptor (unknown origin) expressed in AtT20 cells assessed as inhibition constant; type: cell-based
# [20] = system: HT-22; assay: Neuroprotection against glutamate-induced oxytosis in mouse HT-22 cells assessed as cell viability; type: functional, cell-based
# [21] = system: Staphylococcus aureus; assay: Antibacterial activity against methicillin-resistant Staphylococcus aureus; type: functional
# [22] = target: Cytochrome P450 2J2 (Homo sapiens, UniProt P51589); assay: Non competitive inhibition of CYP2J2 (unknown origin) in presence of NADPH by LC-MS/MS analysis; type: ADME
# [23] = target: T10, Cytochrome P450 2A6 (Homo sapiens, UniProt P11509); assay: Non competitive inhibition of recombinant human CYP2A6 using coumarin as substrate preincubated with NADPH for 20 mins and measured after 30 min; type: ADME
# [24] = target: T10, Cytochrome P450 2A6; assay: Non competitive inhibition of recombinant human CYP2A6 using coumarin as substrate preincubated with NADPH for 20 mins and measured after 30 min by Lineweaver-burk plots analysis; type: ADME
# [25] = target: T11, Cytochrome P450 2B6 (Homo sapiens, UniProt P20813); assay: Mixed inhibition of recombinant human CYP2B6 using coumarin as substrate preincubated with NADPH for 20 mins and measured after 30 min by Lineweaver-burk plots analysis; type: ADME
# T11 sequence (P20813 whole entry): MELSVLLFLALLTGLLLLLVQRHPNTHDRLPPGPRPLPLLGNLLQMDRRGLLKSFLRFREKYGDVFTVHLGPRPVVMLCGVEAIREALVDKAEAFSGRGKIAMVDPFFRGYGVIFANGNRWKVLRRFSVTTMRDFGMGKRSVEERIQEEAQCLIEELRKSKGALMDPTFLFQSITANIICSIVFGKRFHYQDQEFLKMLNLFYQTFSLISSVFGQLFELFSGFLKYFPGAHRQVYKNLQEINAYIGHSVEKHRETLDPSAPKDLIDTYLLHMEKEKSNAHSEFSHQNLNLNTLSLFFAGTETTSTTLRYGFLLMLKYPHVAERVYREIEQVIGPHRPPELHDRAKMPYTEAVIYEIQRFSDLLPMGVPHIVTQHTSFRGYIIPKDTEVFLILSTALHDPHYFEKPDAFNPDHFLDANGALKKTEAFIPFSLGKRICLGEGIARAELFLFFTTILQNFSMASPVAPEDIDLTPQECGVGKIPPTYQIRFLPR
# [26] = target: T11, Cytochrome P450 2B6; assay: Inhibition of recombinant human CYP2B6 using coumarin as substrate preincubated with NADPH for 20 mins and measured after 30 min by Lineweaver-burk plots analysis; type: ADME
# T7 sequence (O75762 whole entry): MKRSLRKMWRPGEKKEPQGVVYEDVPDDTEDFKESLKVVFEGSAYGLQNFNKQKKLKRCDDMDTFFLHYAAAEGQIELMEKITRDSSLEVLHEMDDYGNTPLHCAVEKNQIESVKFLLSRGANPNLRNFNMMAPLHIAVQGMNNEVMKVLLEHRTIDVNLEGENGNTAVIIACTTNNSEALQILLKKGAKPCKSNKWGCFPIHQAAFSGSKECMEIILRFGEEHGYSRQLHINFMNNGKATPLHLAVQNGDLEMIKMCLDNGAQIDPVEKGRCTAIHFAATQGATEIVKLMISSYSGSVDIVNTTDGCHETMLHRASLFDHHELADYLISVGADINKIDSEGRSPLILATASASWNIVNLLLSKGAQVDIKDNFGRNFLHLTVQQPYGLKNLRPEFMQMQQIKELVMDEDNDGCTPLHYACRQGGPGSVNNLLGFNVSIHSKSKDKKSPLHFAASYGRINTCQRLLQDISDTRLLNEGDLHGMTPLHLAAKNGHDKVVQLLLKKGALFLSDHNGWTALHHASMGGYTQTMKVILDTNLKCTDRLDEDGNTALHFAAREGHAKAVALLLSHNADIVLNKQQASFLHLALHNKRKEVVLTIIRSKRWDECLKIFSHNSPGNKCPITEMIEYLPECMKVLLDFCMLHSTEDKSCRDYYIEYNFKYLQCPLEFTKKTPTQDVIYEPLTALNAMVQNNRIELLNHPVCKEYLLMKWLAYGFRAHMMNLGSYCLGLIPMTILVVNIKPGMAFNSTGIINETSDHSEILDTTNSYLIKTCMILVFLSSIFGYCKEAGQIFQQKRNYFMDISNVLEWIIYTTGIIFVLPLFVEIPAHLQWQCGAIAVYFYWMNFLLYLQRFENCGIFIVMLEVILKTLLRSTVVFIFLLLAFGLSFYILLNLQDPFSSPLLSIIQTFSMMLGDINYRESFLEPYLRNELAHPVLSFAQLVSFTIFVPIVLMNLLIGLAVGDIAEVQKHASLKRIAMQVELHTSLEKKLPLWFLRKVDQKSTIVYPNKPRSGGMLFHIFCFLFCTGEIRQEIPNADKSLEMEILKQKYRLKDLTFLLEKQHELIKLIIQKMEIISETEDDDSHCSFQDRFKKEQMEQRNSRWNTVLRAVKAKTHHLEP
# T6 sequence (Q9HBA0 whole entry): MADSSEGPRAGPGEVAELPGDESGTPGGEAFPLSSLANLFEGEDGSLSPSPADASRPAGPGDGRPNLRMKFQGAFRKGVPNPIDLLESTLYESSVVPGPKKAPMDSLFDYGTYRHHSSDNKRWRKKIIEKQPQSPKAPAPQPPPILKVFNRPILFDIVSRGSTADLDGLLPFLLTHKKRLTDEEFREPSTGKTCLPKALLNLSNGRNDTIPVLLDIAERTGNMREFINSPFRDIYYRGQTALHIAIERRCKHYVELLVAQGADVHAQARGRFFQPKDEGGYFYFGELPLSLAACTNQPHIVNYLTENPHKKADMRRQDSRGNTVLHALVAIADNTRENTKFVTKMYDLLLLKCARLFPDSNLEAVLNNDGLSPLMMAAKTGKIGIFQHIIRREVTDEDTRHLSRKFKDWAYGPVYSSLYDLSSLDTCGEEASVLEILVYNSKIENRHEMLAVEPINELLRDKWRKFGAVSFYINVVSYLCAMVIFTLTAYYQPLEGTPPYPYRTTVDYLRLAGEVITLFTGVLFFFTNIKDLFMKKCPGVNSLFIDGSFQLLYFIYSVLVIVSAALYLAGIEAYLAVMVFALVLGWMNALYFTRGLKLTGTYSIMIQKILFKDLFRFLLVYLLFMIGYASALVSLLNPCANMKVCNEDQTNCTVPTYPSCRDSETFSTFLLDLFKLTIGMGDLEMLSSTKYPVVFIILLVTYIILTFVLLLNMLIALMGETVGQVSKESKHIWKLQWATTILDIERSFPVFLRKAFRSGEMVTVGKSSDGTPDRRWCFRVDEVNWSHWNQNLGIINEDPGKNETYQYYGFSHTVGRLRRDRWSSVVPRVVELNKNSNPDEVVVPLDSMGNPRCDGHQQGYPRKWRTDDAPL
# T10 sequence (P11509 whole entry): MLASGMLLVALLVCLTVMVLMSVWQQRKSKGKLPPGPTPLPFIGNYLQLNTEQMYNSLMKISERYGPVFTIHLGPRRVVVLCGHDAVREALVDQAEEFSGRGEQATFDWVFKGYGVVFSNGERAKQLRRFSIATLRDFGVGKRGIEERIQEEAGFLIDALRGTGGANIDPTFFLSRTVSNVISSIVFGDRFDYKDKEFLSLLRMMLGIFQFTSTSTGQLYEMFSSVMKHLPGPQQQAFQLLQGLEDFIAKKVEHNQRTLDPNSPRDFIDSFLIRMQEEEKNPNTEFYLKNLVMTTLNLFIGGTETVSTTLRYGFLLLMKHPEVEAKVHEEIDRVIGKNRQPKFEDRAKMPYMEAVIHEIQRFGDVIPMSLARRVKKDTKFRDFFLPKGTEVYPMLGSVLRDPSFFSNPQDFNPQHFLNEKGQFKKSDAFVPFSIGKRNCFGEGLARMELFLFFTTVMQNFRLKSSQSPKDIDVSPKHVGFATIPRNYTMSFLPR
# T1 sequence (Q8NER1 whole entry): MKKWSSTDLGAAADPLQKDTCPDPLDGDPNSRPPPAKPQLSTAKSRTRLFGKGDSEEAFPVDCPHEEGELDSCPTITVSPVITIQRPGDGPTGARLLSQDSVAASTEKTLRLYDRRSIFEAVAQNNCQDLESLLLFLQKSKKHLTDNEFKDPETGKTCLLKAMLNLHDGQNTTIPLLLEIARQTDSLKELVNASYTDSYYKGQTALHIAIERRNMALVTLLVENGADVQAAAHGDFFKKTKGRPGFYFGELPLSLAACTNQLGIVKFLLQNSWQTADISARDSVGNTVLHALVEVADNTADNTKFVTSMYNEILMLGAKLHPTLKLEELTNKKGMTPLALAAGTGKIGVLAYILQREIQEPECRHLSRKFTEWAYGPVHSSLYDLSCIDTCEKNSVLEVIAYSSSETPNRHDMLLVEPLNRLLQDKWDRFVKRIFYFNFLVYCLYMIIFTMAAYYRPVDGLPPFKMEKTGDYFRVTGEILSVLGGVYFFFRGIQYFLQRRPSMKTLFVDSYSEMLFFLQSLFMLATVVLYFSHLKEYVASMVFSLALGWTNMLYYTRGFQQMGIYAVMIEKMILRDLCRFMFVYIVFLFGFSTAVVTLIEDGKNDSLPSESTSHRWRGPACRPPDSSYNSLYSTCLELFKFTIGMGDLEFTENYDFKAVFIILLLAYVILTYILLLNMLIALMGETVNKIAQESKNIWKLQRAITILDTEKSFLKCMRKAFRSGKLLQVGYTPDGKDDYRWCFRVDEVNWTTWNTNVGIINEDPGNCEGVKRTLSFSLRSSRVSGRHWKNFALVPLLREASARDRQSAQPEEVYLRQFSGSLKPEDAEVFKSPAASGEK
# T9 sequence (P34972 whole entry): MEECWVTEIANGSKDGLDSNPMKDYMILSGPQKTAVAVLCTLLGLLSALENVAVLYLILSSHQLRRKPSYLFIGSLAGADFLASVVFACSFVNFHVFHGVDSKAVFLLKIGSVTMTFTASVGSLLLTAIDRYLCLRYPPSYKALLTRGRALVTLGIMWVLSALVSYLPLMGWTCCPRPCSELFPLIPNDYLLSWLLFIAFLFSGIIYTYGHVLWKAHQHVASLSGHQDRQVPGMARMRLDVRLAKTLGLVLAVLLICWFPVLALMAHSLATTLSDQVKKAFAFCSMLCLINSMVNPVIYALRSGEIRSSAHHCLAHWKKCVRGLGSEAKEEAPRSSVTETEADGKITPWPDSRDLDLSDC
# T8 sequence (P21554 whole entry): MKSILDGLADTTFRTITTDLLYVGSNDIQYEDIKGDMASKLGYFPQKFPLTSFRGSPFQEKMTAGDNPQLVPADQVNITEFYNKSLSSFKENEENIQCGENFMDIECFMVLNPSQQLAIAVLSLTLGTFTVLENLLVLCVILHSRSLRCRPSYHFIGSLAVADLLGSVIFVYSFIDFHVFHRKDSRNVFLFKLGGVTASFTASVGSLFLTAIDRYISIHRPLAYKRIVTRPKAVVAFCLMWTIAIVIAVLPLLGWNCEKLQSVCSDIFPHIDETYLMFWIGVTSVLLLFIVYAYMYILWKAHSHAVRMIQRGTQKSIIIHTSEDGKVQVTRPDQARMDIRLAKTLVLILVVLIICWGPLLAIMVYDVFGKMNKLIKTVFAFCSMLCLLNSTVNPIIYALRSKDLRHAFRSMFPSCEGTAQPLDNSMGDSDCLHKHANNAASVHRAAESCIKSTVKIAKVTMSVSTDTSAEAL
# Chain of Cytochrome P450 2J2 (P51589 whole entry): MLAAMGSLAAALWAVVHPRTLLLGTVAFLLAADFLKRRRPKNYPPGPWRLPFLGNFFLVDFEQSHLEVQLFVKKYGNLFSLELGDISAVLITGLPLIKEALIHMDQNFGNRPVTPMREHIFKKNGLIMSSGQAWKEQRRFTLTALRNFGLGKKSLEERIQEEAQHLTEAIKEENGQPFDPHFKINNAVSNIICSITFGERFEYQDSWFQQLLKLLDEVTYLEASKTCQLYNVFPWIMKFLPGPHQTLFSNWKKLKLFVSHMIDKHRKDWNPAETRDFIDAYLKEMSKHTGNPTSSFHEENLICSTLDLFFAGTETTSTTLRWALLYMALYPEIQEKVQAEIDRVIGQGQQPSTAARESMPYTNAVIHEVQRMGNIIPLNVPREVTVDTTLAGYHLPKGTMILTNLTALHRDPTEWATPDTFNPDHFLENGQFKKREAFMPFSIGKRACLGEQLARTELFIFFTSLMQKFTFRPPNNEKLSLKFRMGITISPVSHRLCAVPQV
structure (smiles),measurement,setting,value
CCCCCc1cc(O)c2c(c1)OC(C)(C)c1ccc(C)cc1-2 [CANNABINOL],Efficacy,[1],< 10%
same,IC50,[2],82 µM
same,EC50,[3],19 µM
same,Efficacy,[4],74%
same,IC50,[5],15.7 µM
same,EC50,[6],5.3 µM
same,Efficacy,[7],72%
same,IC50,[8],9.4 µM
same,EC50,[9],16.1 µM
same,Efficacy,[10],60%
same,IC50,[11],5.4 µM
same,EC50,[12],0.18 µM
same,Efficacy,[13],243%
same,IC50,[14],0.4 µM
same,IC50,[15],0.21 µM
same,Ki,[16],1.1 µM
same,Ki,[17],0.07 µM
same,Ki,[18],0.07 µM
same,Ki,[19],0.3 µM
same,EC50,[20],0.61 µM
same,MIC,[21],1 µg/mL
same,IC50,[22],19 µM
same,IC50,[23],30.4 µM
same,Ki,[24],1 µM
same,Ki,[25],39 µM
same,Ki,[26],2.55 µM
